Like-named read-outs stand apart in the source and are kept apart here.
What was measured:
[1] = biological target: dGMII (Drosophila melanogaster α-mannosidase II); conditions: read-out: Ki dGMII (printed in dGMIIb column); ref Shah et al.[41]; cited from earlier work
[2] = biological target: T1, jack bean α-mannosidase (JBMan) (Canavalia ensiformis, UniProt C0HJB3); conditions: read-out: IC50 JBMan, cited from earlier work
T1 sequence (C0HJB3 1-981): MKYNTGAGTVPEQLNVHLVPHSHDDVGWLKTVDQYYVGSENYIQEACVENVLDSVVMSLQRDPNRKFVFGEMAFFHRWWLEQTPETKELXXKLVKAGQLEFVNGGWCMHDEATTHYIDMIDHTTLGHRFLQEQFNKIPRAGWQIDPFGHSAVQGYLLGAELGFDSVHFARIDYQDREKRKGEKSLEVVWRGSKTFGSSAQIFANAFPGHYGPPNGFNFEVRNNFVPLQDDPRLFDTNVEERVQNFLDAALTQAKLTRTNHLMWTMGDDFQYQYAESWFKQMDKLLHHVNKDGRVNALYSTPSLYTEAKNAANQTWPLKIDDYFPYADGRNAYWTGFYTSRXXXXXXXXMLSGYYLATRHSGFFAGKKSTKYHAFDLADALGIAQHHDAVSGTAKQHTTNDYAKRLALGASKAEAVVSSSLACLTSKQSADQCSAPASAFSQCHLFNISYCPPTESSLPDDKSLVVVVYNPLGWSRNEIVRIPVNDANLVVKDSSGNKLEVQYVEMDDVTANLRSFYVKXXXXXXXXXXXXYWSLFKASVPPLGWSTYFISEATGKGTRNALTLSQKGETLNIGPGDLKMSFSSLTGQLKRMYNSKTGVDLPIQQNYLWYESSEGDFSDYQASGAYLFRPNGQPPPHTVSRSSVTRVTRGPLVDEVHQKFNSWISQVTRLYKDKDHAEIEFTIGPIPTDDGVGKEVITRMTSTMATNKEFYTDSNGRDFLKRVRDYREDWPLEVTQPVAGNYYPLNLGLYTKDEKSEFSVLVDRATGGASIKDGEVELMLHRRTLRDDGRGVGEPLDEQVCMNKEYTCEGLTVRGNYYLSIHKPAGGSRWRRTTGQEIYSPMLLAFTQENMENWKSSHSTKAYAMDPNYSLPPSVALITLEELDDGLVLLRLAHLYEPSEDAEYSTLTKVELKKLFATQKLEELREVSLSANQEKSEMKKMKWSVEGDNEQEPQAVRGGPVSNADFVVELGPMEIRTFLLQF

[3] = biological target: T1, jack bean α-mannosidase (JBMan); experiment: Jack bean α-mannosidase inhibition assay; assay type: biochemical
[4] = biological target: T2, Aspergillus saitoi α1,2-mannosidase (AspMan) (Aspergillus phoenicis, UniProt Q12563); assay type: biochemical
T2 sequence (Q12563 22-513): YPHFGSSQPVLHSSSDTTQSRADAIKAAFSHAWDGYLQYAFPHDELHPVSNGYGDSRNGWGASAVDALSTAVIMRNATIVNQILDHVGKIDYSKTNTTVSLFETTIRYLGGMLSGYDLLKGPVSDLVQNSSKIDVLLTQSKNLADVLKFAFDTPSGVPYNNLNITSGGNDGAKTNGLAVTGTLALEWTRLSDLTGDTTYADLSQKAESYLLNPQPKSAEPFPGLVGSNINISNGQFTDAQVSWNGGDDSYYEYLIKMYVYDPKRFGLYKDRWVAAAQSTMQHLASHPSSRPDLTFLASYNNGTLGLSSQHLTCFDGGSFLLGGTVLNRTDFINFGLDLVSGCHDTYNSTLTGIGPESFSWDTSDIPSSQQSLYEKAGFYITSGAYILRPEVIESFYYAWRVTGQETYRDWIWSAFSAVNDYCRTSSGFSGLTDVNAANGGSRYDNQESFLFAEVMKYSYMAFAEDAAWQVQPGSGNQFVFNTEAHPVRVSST

[5] = biological target: T3, dGMIIb (Drosophila melanogaster Co(II)-activated Golgi α-mannosidase IIb) (Drosophila melanogaster, UniProt Q9VF33); experiment: Class II α-mannosidase inhibition assay; assay type: biochemical
T3 sequence (Q9VF33 31-1249): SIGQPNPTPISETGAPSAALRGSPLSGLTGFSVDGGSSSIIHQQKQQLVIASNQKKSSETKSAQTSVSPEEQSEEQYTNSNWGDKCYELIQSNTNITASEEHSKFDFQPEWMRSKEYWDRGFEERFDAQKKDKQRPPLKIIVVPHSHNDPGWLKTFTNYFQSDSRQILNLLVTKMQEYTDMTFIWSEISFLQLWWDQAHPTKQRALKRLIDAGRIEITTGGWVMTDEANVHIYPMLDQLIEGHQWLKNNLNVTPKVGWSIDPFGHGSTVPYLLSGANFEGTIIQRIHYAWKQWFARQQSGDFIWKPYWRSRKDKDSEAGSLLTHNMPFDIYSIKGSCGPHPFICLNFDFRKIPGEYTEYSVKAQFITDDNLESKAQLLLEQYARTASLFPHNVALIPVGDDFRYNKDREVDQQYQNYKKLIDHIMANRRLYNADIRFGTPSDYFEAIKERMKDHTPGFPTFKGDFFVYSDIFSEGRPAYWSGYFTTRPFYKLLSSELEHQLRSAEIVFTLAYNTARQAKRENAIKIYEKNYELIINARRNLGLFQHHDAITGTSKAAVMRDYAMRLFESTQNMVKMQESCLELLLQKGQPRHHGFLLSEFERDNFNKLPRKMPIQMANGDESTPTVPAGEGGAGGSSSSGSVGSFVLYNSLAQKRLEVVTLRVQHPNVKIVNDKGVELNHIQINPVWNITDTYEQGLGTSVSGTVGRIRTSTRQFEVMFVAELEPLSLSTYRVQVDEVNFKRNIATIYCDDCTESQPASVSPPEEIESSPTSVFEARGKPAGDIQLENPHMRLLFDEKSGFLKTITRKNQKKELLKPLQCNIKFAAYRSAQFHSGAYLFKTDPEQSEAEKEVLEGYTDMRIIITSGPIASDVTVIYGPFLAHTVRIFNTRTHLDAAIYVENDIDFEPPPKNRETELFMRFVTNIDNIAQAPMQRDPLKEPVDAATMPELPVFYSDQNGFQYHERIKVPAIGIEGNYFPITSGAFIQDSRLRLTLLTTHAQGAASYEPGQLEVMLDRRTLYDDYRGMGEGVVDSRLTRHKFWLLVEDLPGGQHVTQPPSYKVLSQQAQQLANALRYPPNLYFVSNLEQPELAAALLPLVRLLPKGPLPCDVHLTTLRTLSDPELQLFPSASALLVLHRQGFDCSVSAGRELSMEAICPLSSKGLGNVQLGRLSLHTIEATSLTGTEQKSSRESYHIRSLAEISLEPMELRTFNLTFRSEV

[6] = biological target: T4, dLManII (Drosophila melanogaster lysosomal α-mannosidase II) (Drosophila melanogaster, UniProt Q9VKV1); experiment: Class II α-mannosidase inhibition assay; assay type: biochemical
T4 sequence (Q9VKV1 25-1080): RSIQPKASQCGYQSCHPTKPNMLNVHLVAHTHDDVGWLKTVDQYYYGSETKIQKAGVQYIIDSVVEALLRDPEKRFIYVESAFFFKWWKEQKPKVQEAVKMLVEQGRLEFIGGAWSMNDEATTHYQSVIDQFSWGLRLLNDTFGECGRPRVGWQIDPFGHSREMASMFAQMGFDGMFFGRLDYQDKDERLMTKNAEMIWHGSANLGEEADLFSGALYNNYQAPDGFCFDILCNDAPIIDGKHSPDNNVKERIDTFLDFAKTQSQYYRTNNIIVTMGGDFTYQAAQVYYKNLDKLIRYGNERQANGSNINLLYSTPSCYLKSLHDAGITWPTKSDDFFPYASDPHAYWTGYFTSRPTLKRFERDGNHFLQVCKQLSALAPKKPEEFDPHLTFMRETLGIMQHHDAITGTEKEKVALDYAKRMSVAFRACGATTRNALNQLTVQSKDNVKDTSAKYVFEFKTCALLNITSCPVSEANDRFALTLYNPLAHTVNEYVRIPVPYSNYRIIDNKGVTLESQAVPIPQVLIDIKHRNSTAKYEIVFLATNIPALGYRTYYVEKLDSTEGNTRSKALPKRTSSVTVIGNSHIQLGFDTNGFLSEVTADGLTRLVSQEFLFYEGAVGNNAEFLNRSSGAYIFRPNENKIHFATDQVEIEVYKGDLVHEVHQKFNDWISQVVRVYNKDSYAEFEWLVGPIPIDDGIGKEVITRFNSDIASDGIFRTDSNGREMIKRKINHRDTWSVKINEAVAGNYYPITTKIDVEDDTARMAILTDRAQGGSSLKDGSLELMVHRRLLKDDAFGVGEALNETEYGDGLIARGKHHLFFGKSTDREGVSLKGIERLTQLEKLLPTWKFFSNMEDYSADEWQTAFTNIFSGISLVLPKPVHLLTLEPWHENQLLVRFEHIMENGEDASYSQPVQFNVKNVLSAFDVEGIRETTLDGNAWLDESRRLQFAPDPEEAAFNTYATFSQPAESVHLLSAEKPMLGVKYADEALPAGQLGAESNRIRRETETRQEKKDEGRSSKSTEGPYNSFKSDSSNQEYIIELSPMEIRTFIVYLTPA

[7] = biological target: T3, dGMIIb (Drosophila melanogaster Co(II)-activated Golgi α-mannosidase IIb); conditions: cited from earlier work

Row | Structure (SMILES) | IC50 [3] | IC50 [4] | IC50 [5] | IC50 [6] | also measured
1 | O=C1N[C@@H]2[C@@H](O)[C@@H](O)[C@H](O)[C@@H](CO)N2C1=O [Kifunensine] |  |  |  |  | Ki [1]: 5200 µM; IC50 ([2]; ref Kayakiri et al.[42]): 120 µM
2 | OC[C@H]1O[C@H](n2cc(CCc3ccccc3)nn2)[C@@H](O)[C@@H](O)[C@@H]1O [Compound 8, 1-α-D-mannopyranosyl-4-(2-phenylethyl)-1,2,3-triazole] | 400 µM | 250 µM | 6000 µM | 5000 µM | 
3 | CS[C@@H]1[C@@H](N)[C@@H](O)[C@@H](O)[C@H]1O [Mannostatin A, reference compound] |  |  | 0.15 µM | 3 µM | IC50 ([2]; ref Ogawa et al.[44]): 0.24 µM
4 | OC[C@H]1O[C@H](n2cc(-c3ccccc3)nn2)[C@@H](O)[C@@H](O)[C@@H]1O [Compound 6, 1-α-D-mannopyranosyl-4-phenyl-1,2,3-triazole] | 400 µM | 50 µM | 5000 µM | 5000 µM | selectivity ratio [IC50(GH38)/IC50(GH47)] ([4]; GH38 mannosidases vs GH47 AspMan): 100
5 | O=S(=O)(Cc1ccccc1)[C@H]1O[C@H](CO)[C@@H](O)[C@H](O)[C@@H]1O [Compound 9, benzyl α-D-mannopyranosyl sulfone] |  |  |  |  | IC50 ([3]; read-out: IC50 JBMan, pNP-Manp substrate, pH 4.5): 2000 µM; IC50 ([7]; read-out: IC50 dGMIIb, ref Poláková et al.[30]): 2000 µM; selectivity GMII vs LM ([7]; ref [30]): selective towards GMII
6 | OC[C@H]1O[C@H](n2cc(Cc3ccccc3)nn2)[C@@H](O)[C@@H](O)[C@@H]1O [Compound 7, 4-Benzyl-1-α-D-mannopyranosyl-1,2,3-triazole] | 1100 µM | 100 µM | 5000 µM | 500 µM | 

Source: article PMC4382718 (Carbohydrate research, 2015)
